Measured values as given in PubChem BioAssay (NCI).
Values after ≈ are worked out from the molar mass of the structure shown.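 These data come from cells grown in 96-well plates and exposed to compound for 48 hours at five concentrations. GI50 is the concentration that inhibits growth by half. TGI: concentration producing complete growth inhibition.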

Key:
Test in all cases: NCI-60 cell line screen, 48 h
[1] = system: HCT-116 colon
[2] = system: HOP-92 NSCLC
[3] = system: M14 melanoma
[4] = system: NCI-H522 lung
[5] = system: OVCAR-8 ovarian
[6] = system: SK-OV-3 ovarian
[7] = system: SNB-19 CNS
[8] = system: SW-620 colon
[9] = system: NCI-H23 lung
[10] = system: SK-MEL-5 melanoma

| Structure (SMILES) | TGI [1] | TGI [2] | TGI [3] | TGI [4] | TGI [5] | TGI [6] | TGI [7] | TGI [8] | GI50 [1] | GI50 [2] | GI50 [9] | TGI [9] | TGI [10] | GI50 [3] | GI50 [5] | GI50 [10] | GI50 [6] | GI50 [7] | GI50 [8] |
| --- | --- | --- | --- | --- | --- | --- | --- | --- | --- | --- | --- | --- | --- | --- | --- | --- | --- | --- | --- |
| O=C1CC2CC3OC3[C@H]3c4cc5c(cc4C(=O)N1C23)OCO5 (stereo not given in full) | > 100 µM | > 100 µM | > 100 µM | > 100 µM | > 100 µM | > 100 µM | > 100 µM | > 100 µM |  |  |  |  |  |  |  |  |  |  |  |
| O=C(N/N=C/c1cc(Cl)cc(Cl)c1[O-])c1ccccc1O.O=C(N/N=C/c1cc(Cl)cc(Cl)c1[O-])c1ccccc1O.[Co+2] | 14 µM | 3.18 µM | 2.95 µM | 1.63 µM | 11.6 µM | 6.45 µM |  | 16.8 µM | 0.552 µM | 0.471 µM | 0.814 µM | 5.47 µM | 2.53 µM |  |  |  |  |  |  |
| CCP(=O)(CC)C(Cl)Cl | > 100 µM | > 100 µM | > 100 µM | > 100 µM | > 100 µM | > 100 µM | > 100 µM | > 100 µM |  |  |  | > 100 µM | > 100 µM |  |  |  |  |  |  |
| CC(=O)Nc1ccc(C(=O)NN2C(=O)C(Cl)/C2=C/c2ccco2)cc1 (stereo not given) | > 100 µM | > 100 µM |  | > 100 µM | > 100 µM | > 100 µM | > 100 µM | > 100 µM |  |  |  | > 100 µM | > 100 µM |  |  |  |  |  |  |
| CC(=O)c1c(C)nc(SSc2nc(C)c(C(C)=O)c(-c3ccc(Cl)cc3)c2C#N)c(C#N)c1-c1ccc(Cl)cc1 | > 150 µg/mL |  | > 150 µg/mL |  | > 150 µg/mL | > 150 µg/mL | > 150 µg/mL | > 150 µg/mL | 94.4 µg/mL |  | 67.4 µg/mL | > 150 µg/mL | > 150 µg/mL | 81.5 µg/mL (≈ 135 µM) | 79.2 µg/mL (≈ 131 µM) | 61.7 µg/mL (≈ 102 µM) | 29.3 µg/mL (≈ 48.6 µM) | 78.4 µg/mL (≈ 130 µM) | 69.4 µg/mL (≈ 115 µM) |
